Measurements as given in patent publication US20070212700A1, “Methods of using and analyzing biological sequence data” (THE BOARD OF REGENTS OF THE UNIVERSITY OF TEXAS SYSTEM, priority 2005, published 2007).

Experiments:
[1] = tested on: biotinylated oriented peptide libraries (group I PPxY, group II PPLP, group III PPR, group IV pS/pT-P); assay: Oriented peptide library binding assay (ELISA) for WW domain specificity
Description: FIGS. 25A-D: Assays for binding affinity and specificity in WW domains. FIG. 25A: five N-terminal biotinylated oriented peptide libraries were constructed to present either a proline-only control (biotin-Z-GMAxxxxPxxxxAKKK (SEQ ID NO:162)) or the four different characteristic WW domain binding motifs: group I-oriented (biotin-Z-GMAxxxPPxYxxxAKKK-C (SEQ ID NO:163)), group II-oriented (biotin-Z-GMAxxxPPLPxxxAKKK (SEQ ID NO:164)), group III-oriented (biotin-Z-GMAxxxPPRxxxAKKK (SEQ ID NO:165)), and group IV-oriented (biotin-Z-GMAxxxxpSPxxxxAKKK (SEQ ID NO:166)), where Z is 6-aminohexanoic acid, pS is phosphoserine, and x denotes all amino acids except Cys. Binding to these peptides indicte affinity for the consensus motifes listed in FIG. 25A (SEQ ID NO:167-171). […] FIG. 25C: binding specificity of artificial WW domains from the CC55 set. Binding is reported in fold above background binding in the absence of target peptides. Shown are the mean and standard deviation of at least four independent assays. FIG. 25D: the binding specificity of additional artificial and natural WW domains.
An oriented peptide library binding assay was developed for measuring WW domain specificity, and a set of natural and artificial sequences was studied. Four biotinylated degenerate peptide libraries were constructed, each oriented around one group-specific WW recognition motif, and binding was detected using an ELISA assay (see FIGS. 25A and 25B). For example, the group I oriented peptide library was biotin-Z-GMAxxxPPxYxxxAKKK (SEQ ID NO:163), where Z is 6-aminohexanoic acid and x stands for any amino acid except cysteine (theoretical degeneracy of 8.9×10^8 sequences). A fifth proline-oriented library was also made as a control for non-specific binding. Natural WW domains that folded in the work described above were subjected to this assay. […] Similarly, the assay confirms known group III (FE65) and IV (Pin1) domains.

PPxY-containing peptide = assay: Peptide binding to wild-type and mutant Nedd4.3 WW domains by isothermal titration calorimetry (double mutant cycle); conditions: Nedd4.3 WW domain
Description: FIGS. 6A-C: A spatially distributed network underlying WW specificity. FIG. 6A: two views of the Nedd4.3 WW domain (in blue CPK), with residues comprising the cluster of eight co-evolving residues as red CPK with a transparent van der Waals surface. The cluster forms a physically connected network that links binding site residues at positions 21, 23, and 28 with the opposite side residues at positions 3 and 4 through a few intervening residues at positions 6, 8, and 22. FIG. 6B: the thermodynamic mutant cycle formalism for measuring energetic coupling between a pair of mutations. The method involves measuring equilibrium dissociation constants for peptide binding for four proteins: wild-type (WT), a mutation at one site (M1), a mutation at a second site (M2), and the double mutation M1, M2. The fold effect of M1 is calculated for the wild type background (X1) or for the background of the second mutation (X2). The thermodynamic coupling parameter Ω is defined as the ratio of these two fold effects (X1/X2)— the degree to which the effect of one mutation depends on the second. FIG. 6C: double mutant cycle analysis of co-evolving positions in the N39 (Nedd4.3) WW domain. […] Peptide binding to wild-type and mutant WW domains was measured using isothermal titration calorimetery. […]

Row | Substance | binding specificity / binding class [1] | fold effect of single mutation on peptide binding relative to wild-type (PPxY-containing peptide; PPxY-containing peptide, ITC) | effect of mutation in the background of T28A (PPxY-containing peptide; mutant cycle)
1 | FE65: natural WW domain, known group III (SDLPAGWMRVQDTSGTYYWHIPTGTTQWEPPGR) | group III |  | 
2 | Nedd4.3: natural group I WW domain, Nedd4.3 (N39) (GPLPPGWEERTHTDGRVFFINHNIKKTQWEDPRM) | specific interaction with the PPxY-containing sequences |  | 
3 | CC55-15: artificial WW domain from the CC55 set (SEQ ID NO:35) (AGLPQGWEAAFDNSGAVYYVNPNTGKTQWERPCLEN) | group III binding profile |  | 
4 | L3A: alanine mutant at position 3 of the Nedd4.3 WW domain (GPAPPGWEERTHTDGRVFFINHNIKKTQWEDPRM) |  | 5.15+/−0.99 fold | diminished
